Active and inactive are the calls of the source. How the calls were made is not given here.
Tested on: CCRIS mutagenicity, Ames/micronucleus/aberration tests
Assay: CCRIS mutagenicity studies
Source text: The CCRIS database contains chemical records with carcinogenicity, mutagenicity, tumor promotion, and tumor inhibition test results. It was developed by the National Cancer Institute (NCI). Data are derived from studies cited in primary journals, current awareness tools, NCI reports, and other sources. Test results have been reviewed by experts in carcinogenesis and mutagenesis.
CCRIS provides historical information from the years 1985 - 2011. It is no longer updated.
This is an archive assay for CCRIS mutagenicity studies.

[1] = Test System: AMES SALMONELLA TYPHIMURIUM, Strain/Indicator: TA98, Metabolic Activation: NONE, Method: STANDARD PLATE
[2] = Test System: AMES SALMONELLA TYPHIMURIUM, Strain/Indicator: TA98, Metabolic Activation: NONE, Method: PREINCUBATION
[3] = Test System: AMES SALMONELLA TYPHIMURIUM, Strain/Indicator: TA100, Metabolic Activation: NONE, Method: PREINCUBATION
[4] = Test System: AMES SALMONELLA TYPHIMURIUM, Strain/Indicator: TA100, Metabolic Activation: NONE, Method: STANDARD PLATE
[5] = Test System: AMES SALMONELLA TYPHIMURIUM, Strain/Indicator: TA100, Metabolic Activation: RAT, LIVER, S-9, AROCLOR 1254, Method: STANDARD PLATE

O=[N+]([O-])c1cc2c3c(c1)CCc1cccc(c1-3)CC2
mutagenic call (Test System: AMES SALMONELLA TYPHIMURIUM, Strain/Indicator: TA98(1,8-DNP6), Metabolic Activation: NONE, Method: STANDARD PLATE): active; positive | mutagenic call (Test System: AMES SALMONELLA TYPHIMURIUM, Strain/Indicator: TA98(NR), Metabolic Activation: NONE, Method: STANDARD PLATE): active; positive | mutagenic call [1]: active; positive

CC(=O)/C=C/CCC(=O)/C=C/C(=O)O[C@@H](CCC(=O)/C=C/C(=O)O)CC(C)=O
mutagenic call (Test System: CHINESE HAMSTER V-79, Strain/Indicator: V-79 (HPRT)/6-THIOGUANINE, Metabolic Activation: NONE): active; positive

Nc1ncnc2nc(-c3ccc([N+](=O)[O-])cc3)[nH]c12
mutagenic call (Test System: AMES SALMONELLA TYPHIMURIUM, Strain/Indicator: TA98(1,8-DNP), Metabolic Activation: NONE, Method: PREINCUBATION): active; positive | mutagenic call (Test System: AMES SALMONELLA TYPHIMURIUM, Strain/Indicator: TA98(1,8-DNP), Metabolic Activation: RAT, LIVER, S-9, PCB, Method: PREINCUBATION): active; positive | mutagenic call (Test System: AMES SALMONELLA TYPHIMURIUM, Strain/Indicator: TA98(NR), Metabolic Activation: NONE, Method: PREINCUBATION): active; positive | mutagenic call (Test System: AMES SALMONELLA TYPHIMURIUM, Strain/Indicator: TA98(NR), Metabolic Activation: RAT, LIVER, S-9, PCB, Method: PREINCUBATION): active; positive | mutagenic call [2]: active; positive | mutagenic call (Test System: AMES SALMONELLA TYPHIMURIUM, Strain/Indicator: TA98, Metabolic Activation: RAT, LIVER, S-9, PCB, Method: PREINCUBATION): active; positive | mutagenic call (Test System: AMES SALMONELLA TYPHIMURIUM, Strain/Indicator: TA100(1,8-DNP), Metabolic Activation: RAT, LIVER, S-9, PCB, Method: PREINCUBATION): inactive; negative | mutagenic call (Test System: AMES SALMONELLA TYPHIMURIUM, Strain/Indicator: TA100(NR), Metabolic Activation: NONE, Method: PREINCUBATION): inactive; negative | mutagenic call (Test System: AMES SALMONELLA TYPHIMURIUM, Strain/Indicator: TA100(NR), Metabolic Activation: RAT, LIVER, S-9, PCB, Method: PREINCUBATION): inactive; negative | mutagenic call [3]: active; positive | mutagenic call (Test System: AMES SALMONELLA TYPHIMURIUM, Strain/Indicator: TA100, Metabolic Activation: RAT, LIVER, S-9, PCB, Method: PREINCUBATION): active; positive | mutagenic call (Test System: AMES SALMONELLA TYPHIMURIUM, Strain/Indicator: YG1020, Metabolic Activation: NONE, Method: PREINCUBATION): active; positive | mutagenic call (Test System: AMES SALMONELLA TYPHIMURIUM, Strain/Indicator: YG1020, Metabolic Activation: RAT, LIVER, S-9, PCB, Method: PREINCUBATION): active; positive | mutagenic call (Test System: AMES SALMONELLA TYPHIMURIUM, Strain/Indicator: YG1021, Metabolic Activation: NONE, Method: PREINCUBATION): active; positive | mutagenic call (Test System: AMES SALMONELLA TYPHIMURIUM, Strain/Indicator: YG1021, Metabolic Activation: RAT, LIVER, S-9, PCB, Method: PREINCUBATION): active; positive | mutagenic call (Test System: AMES SALMONELLA TYPHIMURIUM, Strain/Indicator: YG1024, Metabolic Activation: NONE, Method: PREINCUBATION): active; positive | mutagenic call (Test System: AMES SALMONELLA TYPHIMURIUM, Strain/Indicator: YG1024, Metabolic Activation: RAT, LIVER, S-9, PCB, Method: PREINCUBATION): active; positive | mutagenic call (Test System: AMES SALMONELLA TYPHIMURIUM, Strain/Indicator: YG1025, Metabolic Activation: NONE, Method: PREINCUBATION): active; positive | mutagenic call (Test System: AMES SALMONELLA TYPHIMURIUM, Strain/Indicator: YG1025, Metabolic Activation: RAT, LIVER, S-9, PCB, Method: PREINCUBATION): active; positive | mutagenic call (Test System: AMES SALMONELLA TYPHIMURIUM, Strain/Indicator: YG1026, Metabolic Activation: NONE, Method: PREINCUBATION): active; positive | mutagenic call (Test System: AMES SALMONELLA TYPHIMURIUM, Strain/Indicator: YG1026, Metabolic Activation: RAT, LIVER, S-9, PCB, Method: PREINCUBATION): active; positive | mutagenic call (Test System: AMES SALMONELLA TYPHIMURIUM, Strain/Indicator: YG1029, Metabolic Activation: NONE, Method: PREINCUBATION): active; positive | mutagenic call (Test System: AMES SALMONELLA TYPHIMURIUM, Strain/Indicator: YG1029, Metabolic Activation: RAT, LIVER, S-9, PCB, Method: PREINCUBATION): active; positive

C=COC(N)=O
mutagenic call (End Point: In vivo micronucleus, Test System: Peripheral blood reticulocytes, Species: Mouse, Strain/Sex: F1 (Big Blue x A/J) transgenic/Male and female, Route: Intraperitoneal): active; positive | mutagenic call (Test System: UDS MOUSE SPERMATIDS, Strain/Indicator: THY INCORP, Metabolic Activation: NONE): active; positive

Cc1cc2c(cc1N=O)OCO2
mutagenic call [3]: active; positive | mutagenic call (Test System: AMES SALMONELLA TYPHIMURIUM, Strain/Indicator: TA100, Metabolic Activation: RAT, LIVER, S-9, PHENOBARBITAL AND 5,6-BENZOFLAVONE, Method: PREINCUBATION): active; positive

COc1cc2c(c3oc(=O)c4c(c13)CC[C@@H]4O)[C@@H]1C=CO[C@@H]1O2
mutagenic call (Test System: AMES SALMONELLA TYPHIMURIUM, Strain/Indicator: TA98, Metabolic Activation: RAT, LIVER, S-9, PHENOBARBITAL, Method: STANDARD PLATE): active; positive | mutagenic call (Test System: AMES SALMONELLA TYPHIMURIUM, Strain/Indicator: TA98, Metabolic Activation: RAT, LIVER, S-9, Method: STANDARD PLATE): active; positive | mutagenic call [4]: inactive; negative | mutagenic call [5]: active; positive | mutagenic call (Test System: UDS HUMAN FIBROBLASTS, Strain/Indicator: THY INCORP (NON-S-PHASE), Metabolic Activation: MOUSE, LIVER, S-9, Method: AUTORADIOGRAPHY): active; positive | mutagenic call (Test System: UDS HUMAN FIBROBLASTS, Strain/Indicator: THY INCORP (NON-S-PHASE), Metabolic Activation: RAT, LIVER, S-9, Method: AUTORADIOGRAPHY): active; positive

S=C([S-])NCCNC(=S)[S-].[Zn+2]
mutagenic call [1]: inactive; negative | mutagenic call (Test System: AMES SALMONELLA TYPHIMURIUM, Strain/Indicator: TA98, Metabolic Activation: RAT, LIVER, S-9, AROCLOR 1254, Method: STANDARD PLATE): inactive; negative | mutagenic call [4]: inactive; negative | mutagenic call [5]: inactive; negative | mutagenic call (Test System: AMES SALMONELLA TYPHIMURIUM, Strain/Indicator: TA1535, Metabolic Activation: NONE, Method: STANDARD PLATE): inactive; negative | mutagenic call (Test System: AMES SALMONELLA TYPHIMURIUM, Strain/Indicator: TA1535, Metabolic Activation: RAT, LIVER, S-9, AROCLOR 1254, Method: STANDARD PLATE): inactive; negative | mutagenic call (Test System: AMES SALMONELLA TYPHIMURIUM, Strain/Indicator: TA1537, Metabolic Activation: NONE, Method: STANDARD PLATE): inactive; negative | mutagenic call (Test System: AMES SALMONELLA TYPHIMURIUM, Strain/Indicator: TA1537, Metabolic Activation: RAT, LIVER, S-9, AROCLOR 1254, Method: STANDARD PLATE): inactive; negative | mutagenic call (Test System: E. COLI, Strain/Indicator: WP2, Metabolic Activation: NONE, Method: STANDARD PLATE): inactive; negative | mutagenic call (Test System: E. COLI, Strain/Indicator: WP2, Metabolic Activation: RAT, LIVER, S-9, AROCLOR 1254, Method: STANDARD PLATE): inactive; negative

CCC(C(C)O)[N+](=O)[O-] (stereo not drawn)
mutagenic call [2]: inactive; negative | mutagenic call (Test System: AMES SALMONELLA TYPHIMURIUM, Strain/Indicator: TA98, Metabolic Activation: RAT, LIVER, S-9, AROCLOR, Method: PREINCUBATION): inactive; negative | mutagenic call [3]: inactive; negative | mutagenic call (Test System: AMES SALMONELLA TYPHIMURIUM, Strain/Indicator: TA100, Metabolic Activation: RAT, LIVER, S-9, AROCLOR, Method: PREINCUBATION): inactive; negative | mutagenic call (Test System: AMES SALMONELLA TYPHIMURIUM, Strain/Indicator: TA102, Metabolic Activation: NONE, Method: PREINCUBATION): inactive; negative | mutagenic call (Test System: AMES SALMONELLA TYPHIMURIUM, Strain/Indicator: TA102, Metabolic Activation: RAT, LIVER, S-9, AROCLOR, Method: PREINCUBATION): inactive; negative

— PubChem BioAssay AID1259407 (Chemical Carcinogenesis Research Information System (CCRIS), 2018)
